Literature values in patent US20240115666A1, “COMPOSITIONS AND METHODS FOR REDUCING GAMMA-GLUTAMYLTRANSFERASE LEVELS” (Lile Method Research, LLC, priority 2022, published 2024).

half-life in the blood: seconds to minutes
Structure (SMILES): N[C@@H](CCC(=O)N[C@@H](CS)C(=O)NCC(=O)O)C(=O)O [glutathione, L-γ-glutamyl-L-cysteinylglycine]
